# Experimental data reported in ChEMBL document CHEMBL1201862, “PubChem BioAssay data set” (2004).
# Calls of active or inactive are those of the source.
# What was measured:
# [1] = biological target: 26S proteasome non-ATPase regulatory subunit 14 (Homo sapiens, UniProt O00487); assay: inhibition of proteasome subunit RPN11 – biochemical, fluorescence polarization, uHTS hits, confirmation (AID 602368); type: functional
# [2] = biological target: 72 kDa type IV collagenase (Homo sapiens, UniProt P08253); assay: Dose Response validation of uHTS RPN11 inhibitor hits using a MMP-2 Fluorescence assay.; type: functional
# Sequence of 72 kDa type IV collagenase (P08253 whole entry): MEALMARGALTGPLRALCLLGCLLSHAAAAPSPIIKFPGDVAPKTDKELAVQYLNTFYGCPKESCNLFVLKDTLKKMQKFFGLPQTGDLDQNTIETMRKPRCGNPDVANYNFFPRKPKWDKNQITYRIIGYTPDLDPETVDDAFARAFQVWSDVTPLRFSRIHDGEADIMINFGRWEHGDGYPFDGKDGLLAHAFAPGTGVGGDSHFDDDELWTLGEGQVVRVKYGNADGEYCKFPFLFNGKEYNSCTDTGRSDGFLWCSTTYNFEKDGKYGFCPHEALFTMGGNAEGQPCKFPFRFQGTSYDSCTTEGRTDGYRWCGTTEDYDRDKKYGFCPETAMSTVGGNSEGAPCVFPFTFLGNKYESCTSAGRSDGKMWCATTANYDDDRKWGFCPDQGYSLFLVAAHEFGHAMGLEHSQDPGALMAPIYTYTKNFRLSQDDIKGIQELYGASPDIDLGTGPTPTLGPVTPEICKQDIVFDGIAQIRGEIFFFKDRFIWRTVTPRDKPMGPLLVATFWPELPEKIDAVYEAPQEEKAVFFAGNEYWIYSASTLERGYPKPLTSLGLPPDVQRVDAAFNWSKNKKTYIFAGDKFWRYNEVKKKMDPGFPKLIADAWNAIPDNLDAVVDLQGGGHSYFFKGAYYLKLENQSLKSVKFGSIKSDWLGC
# Prothrombin = Prothrombin (Bos taurus, UniProt P00735); assay: thrombin protease inhibitors – biochemical, fluorescence polarization, uHTS hits, dose response (AID 602369); type: functional
# [3] = biological target: Nuclear receptor subfamily 5 group A member 2 (Homo sapiens, UniProt O00482); type: functional, cell-based;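 further: HEK293T cells transfected with LRH-1 and a StAR promoter luciferase reporter; potency for inhibitors that lower LRH-1 driven reporter light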
# Sequence of Nuclear receptor subfamily 5 group A member 2 (O00482 whole entry): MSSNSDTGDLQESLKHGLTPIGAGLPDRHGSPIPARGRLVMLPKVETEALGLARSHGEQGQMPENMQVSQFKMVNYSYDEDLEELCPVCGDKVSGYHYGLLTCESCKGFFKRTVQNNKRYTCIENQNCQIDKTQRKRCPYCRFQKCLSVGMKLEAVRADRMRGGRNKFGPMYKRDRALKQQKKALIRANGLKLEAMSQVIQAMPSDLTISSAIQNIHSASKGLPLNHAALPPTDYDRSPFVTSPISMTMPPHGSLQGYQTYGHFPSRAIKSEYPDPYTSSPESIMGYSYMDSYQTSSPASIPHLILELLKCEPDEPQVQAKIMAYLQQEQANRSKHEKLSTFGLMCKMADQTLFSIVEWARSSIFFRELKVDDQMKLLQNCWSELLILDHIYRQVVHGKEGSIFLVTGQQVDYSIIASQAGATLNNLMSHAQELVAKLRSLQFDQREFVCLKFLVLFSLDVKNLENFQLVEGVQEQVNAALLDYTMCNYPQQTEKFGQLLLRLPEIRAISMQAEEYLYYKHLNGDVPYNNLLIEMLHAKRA
# Steroidogenic factor 1 = Steroidogenic factor 1 (Homo sapiens, UniProt Q13285); assay: Counterscreen for inverse agonists of the liver receptor homolog-1 (LRH-1; NR5A2): Luminescence-based cell-based high throughput dose response assay to identify inverse agonists of the Steroidogenic Factor 1 Nuclear Receptor (SF1; NR5A1).; type: functional
# Sequence of Steroidogenic factor 1 (Q13285 whole entry): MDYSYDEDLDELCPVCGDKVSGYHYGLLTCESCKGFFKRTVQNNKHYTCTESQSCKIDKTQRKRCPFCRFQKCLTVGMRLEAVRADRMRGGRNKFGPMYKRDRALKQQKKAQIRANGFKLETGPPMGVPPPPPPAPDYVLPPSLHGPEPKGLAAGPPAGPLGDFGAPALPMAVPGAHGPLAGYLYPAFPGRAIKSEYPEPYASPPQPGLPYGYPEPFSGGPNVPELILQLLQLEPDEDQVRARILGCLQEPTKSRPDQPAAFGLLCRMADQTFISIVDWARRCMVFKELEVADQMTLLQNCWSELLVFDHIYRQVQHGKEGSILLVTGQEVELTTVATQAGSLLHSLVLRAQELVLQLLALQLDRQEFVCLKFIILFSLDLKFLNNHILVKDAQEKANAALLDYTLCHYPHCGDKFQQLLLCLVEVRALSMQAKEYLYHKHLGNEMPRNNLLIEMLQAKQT
# [4] = nonselective StAR promoter luciferase inhibitors – cell-based, luminescence, luciferase reporter, counter-screen for LRH-1 inverse agonist project, dose response (AID 651969); type: functional
# [5] = biological target: Adenosylmethionine-8-amino-7-oxononanoate aminotransferase (Mycobacterium tuberculosis, UniProt P9WQ81); assay: Mycobacterium tuberculosis BioA enzyme inhibitor Measured in Biochemical System Using Plate Reader - 2163-02_Inhibitor_Dose_CherryPick_Activity.; type: functional, Mycobacterium tuberculosis UT205
# Sequence of Adenosylmethionine-8-amino-7-oxononanoate aminotransferase (P9WQ81 whole entry): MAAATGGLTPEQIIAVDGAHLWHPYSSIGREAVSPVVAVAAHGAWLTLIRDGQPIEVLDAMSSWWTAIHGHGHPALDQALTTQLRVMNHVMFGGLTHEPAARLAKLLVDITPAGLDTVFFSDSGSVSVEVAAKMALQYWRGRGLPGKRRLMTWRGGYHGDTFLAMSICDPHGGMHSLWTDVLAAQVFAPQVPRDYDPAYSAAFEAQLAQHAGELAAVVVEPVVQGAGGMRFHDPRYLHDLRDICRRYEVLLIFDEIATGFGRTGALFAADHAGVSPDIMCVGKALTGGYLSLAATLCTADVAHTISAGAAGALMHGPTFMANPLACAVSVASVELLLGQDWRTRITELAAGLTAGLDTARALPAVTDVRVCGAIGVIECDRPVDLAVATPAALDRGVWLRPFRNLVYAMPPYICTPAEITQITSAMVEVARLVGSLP
# [6] = biological target: T1, Probable nicotinate-nucleotide adenylyltransferase (Staphylococcus aureus (strain N315), UniProt P65502); type: functional, Staphylococcus aureus subsp. aureus N315;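 on IC50 Mean: confirmatory dose-response retesting of NadD inhibitor hits first found in an ultra-high-throughput screen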
# T1 sequence (P65502 whole entry): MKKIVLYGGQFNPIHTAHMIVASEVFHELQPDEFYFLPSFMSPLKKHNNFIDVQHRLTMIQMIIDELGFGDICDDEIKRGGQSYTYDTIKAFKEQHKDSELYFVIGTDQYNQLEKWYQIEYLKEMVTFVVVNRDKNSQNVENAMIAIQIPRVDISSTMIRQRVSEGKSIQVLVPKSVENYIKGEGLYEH
# [7] = biological target: T1, Probable nicotinate-nucleotide adenylyltransferase; type: functional, Staphylococcus aureus subsp. aureus N315; settings: read-out: IC50_Mean
# [8] = biological target: T2, RNA-binding protein pos-1 (Caenorhabditis elegans, UniProt G5EF15); assay: disruptors of C. elegans POS-1 RNA interaction – biochemical, fluorescence polarization, dose response (AID 1964);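 further: purified POS-1 fused to maltose binding protein made in E. coli; potency of compounds blocking POS-1 binding to fluorescent RNA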
# T2 sequence (G5EF15 whole entry): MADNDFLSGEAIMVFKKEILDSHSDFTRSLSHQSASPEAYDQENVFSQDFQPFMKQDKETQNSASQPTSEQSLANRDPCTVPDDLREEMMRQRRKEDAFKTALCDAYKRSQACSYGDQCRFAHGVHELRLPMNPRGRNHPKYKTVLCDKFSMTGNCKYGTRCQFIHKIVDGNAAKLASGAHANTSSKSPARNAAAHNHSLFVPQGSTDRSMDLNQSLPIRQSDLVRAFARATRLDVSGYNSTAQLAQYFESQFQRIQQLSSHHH
# [9] = tested on: Streptococcus sp. 'group A'; assay: Streptococcus pyogenes SK(-)GAS viability under kanamycin – luminescence, BacTiterGlo, confirmation, counter-screen for streptokinase expression inhibitor project, dose response (AID 1900); type: functional, organism-based
# [10] = biological target: T3, Zinc finger protein mex-5 (Caenorhabditis elegans, UniProt Q9XUB2); assay: potency of MEX-5 RNA-binding blockers – biochemical, C. elegans, fluorescence polarization, dose response (AID 1960)
# T3 sequence (Q9XUB2 whole entry): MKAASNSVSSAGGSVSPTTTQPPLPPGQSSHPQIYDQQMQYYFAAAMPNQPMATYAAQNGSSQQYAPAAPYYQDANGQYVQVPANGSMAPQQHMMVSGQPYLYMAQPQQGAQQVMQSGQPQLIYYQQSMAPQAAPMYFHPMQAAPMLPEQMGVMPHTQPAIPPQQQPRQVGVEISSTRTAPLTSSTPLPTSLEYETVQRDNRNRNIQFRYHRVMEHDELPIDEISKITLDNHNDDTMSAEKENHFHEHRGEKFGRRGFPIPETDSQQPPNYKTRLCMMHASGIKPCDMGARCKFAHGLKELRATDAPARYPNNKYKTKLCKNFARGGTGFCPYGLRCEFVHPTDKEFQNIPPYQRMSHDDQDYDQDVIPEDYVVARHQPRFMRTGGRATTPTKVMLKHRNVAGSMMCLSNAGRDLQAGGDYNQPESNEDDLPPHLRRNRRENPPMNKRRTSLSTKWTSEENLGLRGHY
# Streptokinase A = biological target: T4, Streptokinase A (Streptococcus pyogenes serotype M1, UniProt P10520); assay: viability-normalized secreted streptokinase activity reduction – plasminogen activation absorbance, OD405, dose response (AID 1914); type: functional, Streptococcus pyogenes M1 GAS;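 further: secreted streptokinase activity via plasminogen activation per viability signal from cell pellet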
# T4 sequence (P10520 whole entry): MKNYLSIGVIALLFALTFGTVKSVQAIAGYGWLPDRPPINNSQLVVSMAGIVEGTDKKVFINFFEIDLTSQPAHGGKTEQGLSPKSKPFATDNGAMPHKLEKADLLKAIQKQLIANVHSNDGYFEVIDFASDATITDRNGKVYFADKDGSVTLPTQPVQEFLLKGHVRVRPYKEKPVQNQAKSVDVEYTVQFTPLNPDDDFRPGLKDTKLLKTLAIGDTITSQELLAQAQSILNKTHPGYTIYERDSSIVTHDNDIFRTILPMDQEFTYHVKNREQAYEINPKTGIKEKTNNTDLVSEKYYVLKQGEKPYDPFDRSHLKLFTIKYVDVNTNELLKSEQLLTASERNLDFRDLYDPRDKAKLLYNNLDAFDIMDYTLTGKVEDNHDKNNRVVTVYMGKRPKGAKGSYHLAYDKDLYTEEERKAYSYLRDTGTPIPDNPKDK
# Streptococcus = assay: GAS UMAA2166 growth inhibition – luminescence, BacTiterGlo, counter-screen for streptokinase expression inhibitor project, dose response (AID 1915); type: functional, organism-based;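 further: potency for reduction of bacterial viability or growth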
# [11] = biological target: T5, Replicative DNA helicase DnaB (Mycobacterium tuberculosis, UniProt P9WMR3); assay: DnaB intein splicing inhibitors, dose response, biochemical, cell-free fluorescence (AID 449749); type: functional
# T5 sequence (P9WMR3 whole entry): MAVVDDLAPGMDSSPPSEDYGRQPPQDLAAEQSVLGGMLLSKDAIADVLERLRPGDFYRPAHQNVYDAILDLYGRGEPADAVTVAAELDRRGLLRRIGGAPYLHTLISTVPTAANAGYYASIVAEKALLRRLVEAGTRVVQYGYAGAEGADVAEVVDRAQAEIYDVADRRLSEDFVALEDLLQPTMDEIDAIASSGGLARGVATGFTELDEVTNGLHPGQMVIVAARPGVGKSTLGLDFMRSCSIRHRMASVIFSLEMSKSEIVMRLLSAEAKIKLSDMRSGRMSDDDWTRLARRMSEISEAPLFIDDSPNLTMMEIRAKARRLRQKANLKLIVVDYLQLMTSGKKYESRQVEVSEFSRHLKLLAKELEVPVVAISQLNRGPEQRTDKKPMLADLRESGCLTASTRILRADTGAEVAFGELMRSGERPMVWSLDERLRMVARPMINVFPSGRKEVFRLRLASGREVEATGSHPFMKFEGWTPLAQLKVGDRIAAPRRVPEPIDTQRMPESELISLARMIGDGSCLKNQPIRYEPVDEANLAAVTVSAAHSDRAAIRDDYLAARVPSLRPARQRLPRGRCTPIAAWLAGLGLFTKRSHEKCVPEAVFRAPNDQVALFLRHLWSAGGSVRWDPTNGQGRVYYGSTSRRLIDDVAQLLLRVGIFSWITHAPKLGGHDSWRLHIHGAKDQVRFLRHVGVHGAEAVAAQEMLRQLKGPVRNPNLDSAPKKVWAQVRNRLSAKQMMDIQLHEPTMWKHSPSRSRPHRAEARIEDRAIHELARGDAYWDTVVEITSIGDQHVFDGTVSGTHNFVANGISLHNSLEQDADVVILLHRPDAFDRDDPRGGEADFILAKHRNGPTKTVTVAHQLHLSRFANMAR
# Protein RecA = biological target: T6, Protein RecA (Mycobacterium tuberculosis, UniProt P9WHJ3); assay: Fluorescence Cell-Free Homogeneous Dose Retest to Identify Inhibitors of RecA-Intein Splicing Activity. [Related pubchem assays (depositor defined):AID2097, AID2223, AID489010, AID492950]; type: functional
# T6 sequence (P9WHJ3 whole entry): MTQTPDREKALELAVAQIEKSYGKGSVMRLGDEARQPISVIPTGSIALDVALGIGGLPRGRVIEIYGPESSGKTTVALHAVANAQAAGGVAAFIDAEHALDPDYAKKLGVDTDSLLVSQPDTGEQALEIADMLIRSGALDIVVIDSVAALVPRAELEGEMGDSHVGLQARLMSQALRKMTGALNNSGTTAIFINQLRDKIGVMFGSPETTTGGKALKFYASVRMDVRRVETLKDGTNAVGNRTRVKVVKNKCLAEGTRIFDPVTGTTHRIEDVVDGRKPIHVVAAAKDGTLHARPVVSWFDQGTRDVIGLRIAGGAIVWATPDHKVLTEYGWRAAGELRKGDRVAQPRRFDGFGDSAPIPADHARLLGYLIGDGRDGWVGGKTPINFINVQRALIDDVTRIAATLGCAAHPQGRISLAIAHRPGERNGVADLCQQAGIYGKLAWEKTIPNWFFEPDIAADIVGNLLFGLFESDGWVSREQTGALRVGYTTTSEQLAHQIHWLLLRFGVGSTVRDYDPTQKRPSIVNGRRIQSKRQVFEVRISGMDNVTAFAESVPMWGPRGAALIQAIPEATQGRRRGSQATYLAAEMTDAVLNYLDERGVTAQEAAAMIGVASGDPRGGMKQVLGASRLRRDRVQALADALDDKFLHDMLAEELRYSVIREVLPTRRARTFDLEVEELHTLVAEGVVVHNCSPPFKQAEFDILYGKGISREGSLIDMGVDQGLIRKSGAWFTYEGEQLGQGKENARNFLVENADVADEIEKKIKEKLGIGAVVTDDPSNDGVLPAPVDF
# [12] = biological target: T7, Calpain-2 catalytic subunit (Sus scrofa, UniProt P43367); assay: m-calpain protease blockers, concentration series – biochemical, fluorogenic peptide substrate, dose response (AID 1420); type: functional
# T7 sequence (P43367 whole entry): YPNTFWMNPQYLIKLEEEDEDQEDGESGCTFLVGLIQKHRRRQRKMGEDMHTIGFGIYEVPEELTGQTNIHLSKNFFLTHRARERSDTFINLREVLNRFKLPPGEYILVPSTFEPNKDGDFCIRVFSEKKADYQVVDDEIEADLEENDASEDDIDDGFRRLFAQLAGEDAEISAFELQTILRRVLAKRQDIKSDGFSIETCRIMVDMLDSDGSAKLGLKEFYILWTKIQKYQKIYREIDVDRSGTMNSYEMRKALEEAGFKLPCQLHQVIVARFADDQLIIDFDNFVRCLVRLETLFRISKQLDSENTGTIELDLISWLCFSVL
# [13] = biological target: Eukaryotic translation initiation factor 4E (Mus musculus, UniProt P63073); assay: blockers of eIF4G binding by eIF4E – biochemical, TR-FRET, dose response (AID 855); type: functional;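 further: potency for disrupting eIF4E binding to eIF4GI seen as loss of FRET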
# Sequence of Eukaryotic translation initiation factor 4E (P63073 whole entry): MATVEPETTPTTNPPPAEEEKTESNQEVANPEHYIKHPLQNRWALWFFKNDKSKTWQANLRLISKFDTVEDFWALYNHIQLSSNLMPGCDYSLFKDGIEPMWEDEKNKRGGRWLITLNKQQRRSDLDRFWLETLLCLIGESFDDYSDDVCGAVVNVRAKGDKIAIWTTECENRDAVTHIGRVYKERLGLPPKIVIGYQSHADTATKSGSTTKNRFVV
# [14] = biological target: Tyrosine-protein phosphatase non-receptor type 11 (Homo sapiens, UniProt Q06124); assay: PTPN11 enzyme inhibitors – biochemical, selectivity assay for STEP inhibitor project, dose response (AID 602367); type: functional; settings: read-out: IC50_Mean
# Sequence of Tyrosine-protein phosphatase non-receptor type 11 (Q06124 whole entry): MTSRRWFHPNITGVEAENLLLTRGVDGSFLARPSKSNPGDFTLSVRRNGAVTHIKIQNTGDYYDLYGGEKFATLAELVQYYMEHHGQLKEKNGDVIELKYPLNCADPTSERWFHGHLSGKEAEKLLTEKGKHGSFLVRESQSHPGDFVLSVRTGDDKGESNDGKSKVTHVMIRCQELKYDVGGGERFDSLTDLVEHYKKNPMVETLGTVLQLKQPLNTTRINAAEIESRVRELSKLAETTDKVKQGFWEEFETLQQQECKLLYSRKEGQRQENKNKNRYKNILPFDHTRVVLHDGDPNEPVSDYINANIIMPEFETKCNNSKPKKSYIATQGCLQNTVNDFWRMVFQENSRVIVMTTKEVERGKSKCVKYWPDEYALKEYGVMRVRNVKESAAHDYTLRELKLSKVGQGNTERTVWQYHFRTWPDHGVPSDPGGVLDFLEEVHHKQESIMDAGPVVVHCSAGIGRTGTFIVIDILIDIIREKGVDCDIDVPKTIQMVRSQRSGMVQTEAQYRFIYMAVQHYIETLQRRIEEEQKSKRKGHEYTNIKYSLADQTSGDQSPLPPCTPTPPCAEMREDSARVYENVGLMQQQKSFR
# [15] = biological target: Tyrosine-protein phosphatase non-receptor type 5 (Homo sapiens, UniProt P54829); assay: PTPN5 enzyme inhibition – biochemical, fluorescence intensity, uHTS hits, confirmation (AID 602372); type: functional; settings: read-out: IC50_Mean
# Sequence of Tyrosine-protein phosphatase non-receptor type 5 (P54829 whole entry): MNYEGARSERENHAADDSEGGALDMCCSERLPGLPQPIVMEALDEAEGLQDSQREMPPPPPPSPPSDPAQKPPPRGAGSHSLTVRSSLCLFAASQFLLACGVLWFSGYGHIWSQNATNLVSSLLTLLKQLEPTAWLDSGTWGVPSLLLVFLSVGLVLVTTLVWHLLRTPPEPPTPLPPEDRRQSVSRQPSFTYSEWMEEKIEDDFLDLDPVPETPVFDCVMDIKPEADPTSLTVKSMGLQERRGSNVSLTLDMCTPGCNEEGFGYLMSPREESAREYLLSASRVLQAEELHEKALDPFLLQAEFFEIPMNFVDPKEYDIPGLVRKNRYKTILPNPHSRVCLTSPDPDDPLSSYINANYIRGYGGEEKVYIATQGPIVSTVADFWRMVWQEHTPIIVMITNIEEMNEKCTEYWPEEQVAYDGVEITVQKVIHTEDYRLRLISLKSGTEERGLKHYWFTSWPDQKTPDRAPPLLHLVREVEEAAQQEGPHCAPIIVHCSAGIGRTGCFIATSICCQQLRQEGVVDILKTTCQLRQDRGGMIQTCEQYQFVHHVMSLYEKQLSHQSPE
# [16] = biological target: Dual specificity protein phosphatase 3 (Homo sapiens, UniProt P51452); assay: VHR phosphatase inhibition, dose response, selectivity assay for STEP inhibitor project, biochemical (AID 602374); type: functional; settings: read-out: IC50_Mean
# Sequence of Dual specificity protein phosphatase 3 (P51452 whole entry): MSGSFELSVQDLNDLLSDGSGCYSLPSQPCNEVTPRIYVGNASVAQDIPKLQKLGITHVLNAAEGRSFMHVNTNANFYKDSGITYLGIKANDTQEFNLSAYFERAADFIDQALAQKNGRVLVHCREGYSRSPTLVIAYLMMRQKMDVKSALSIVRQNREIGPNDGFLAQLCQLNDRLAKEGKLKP
# [17] = biological target: T8, Small ubiquitin-related modifier 1 (Homo sapiens, UniProt P63165); assay: SUMO1 protein interaction blockers, potency – biochemical, fluorescence polarization, uHTS hits, dose response (AID 624382); type: functional; settings: read-out: IC50_Mean
# T8 sequence (P63165 whole entry): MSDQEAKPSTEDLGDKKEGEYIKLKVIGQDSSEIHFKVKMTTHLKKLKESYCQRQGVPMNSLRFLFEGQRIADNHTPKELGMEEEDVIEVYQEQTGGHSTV
# [18] = biological target: T8, Small ubiquitin-related modifier 1; assay: SUMO1 protein-protein binding blockers, potency – biochemical, FRET, dose response (AID 624383); type: functional; settings: read-out: IC50_Mean
# Sequence of 26S proteasome non-ATPase regulatory subunit 14 (O00487 whole entry): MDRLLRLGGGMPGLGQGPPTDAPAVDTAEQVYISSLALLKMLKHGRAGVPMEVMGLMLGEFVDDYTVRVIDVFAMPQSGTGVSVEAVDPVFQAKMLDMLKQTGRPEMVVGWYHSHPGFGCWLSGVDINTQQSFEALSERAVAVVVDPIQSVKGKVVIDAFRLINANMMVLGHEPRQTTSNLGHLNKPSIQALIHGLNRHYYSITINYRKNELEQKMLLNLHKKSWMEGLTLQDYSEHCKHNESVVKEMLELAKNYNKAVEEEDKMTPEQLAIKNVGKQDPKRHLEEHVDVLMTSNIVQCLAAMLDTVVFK
compound,measurement,setting,value
O=C(O)CCCCN1C(=O)/C(=C\c2ccc(OCc3ccccc3)c(OCc3ccccc3)c2)SC1=S,IC50,[1],45.4 µM (active)
same,IC50,[2],> 100 µM (inactive)
same,IC50,Prothrombin,29.3 µM (active)
COc1ccccc1NC(=O)CN1CCN(CC(=O)Nc2ccc(S(N)(=O)=O)cc2)CC1,IC50,[3],25.9 µM (inactive)
same,IC50,Steroidogenic factor 1,6.64 µM (active)
same,IC50,[4],35.9 µM (inactive)
O=C(C[C@@H]1C[C@H]2c3cc(NC(=O)c4cccnc4)ccc3O[C@H]2[C@@H](CO)O1)NCc1cc(F)ccc1F,AC50,[5],12.6 µM (active)
O=C(Nc1cccc(F)c1)C1CCCN(c2cnccn2)C1 (configuration not stated),AC50,[5],5.41 µM (active)
Cc1ccc(C)c(N2CCN(S(=O)(=O)c3ccc4nc(O)c(O)nc4c3)CC2)c1,IC50,[6],5.39 µM (active)
same,IC50,[7],25.9 µM (active)
O=C(N/N=C/c1cc(Cl)cc([N+](=O)[O-])c1O)c1ccccc1NS(=O)(=O)c1cccs1,EC50,[8],282 µM (active)
same,EC50,[9],4.31 µM (active)
same,EC50,[10],1.56 µM (inconclusive)
same,EC50,Streptokinase A,> 150 µM (not active)
same,EC50,Streptococcus,18.9 µM (active)
same,AC50,[11],15.9 µM (active)
same,EC50,Protein RecA,67.2 µM (active)
same,IC50,[1],10.4 µM (active)
same,IC50,[2],> 100 µM (inactive)
same,IC50,Prothrombin,85.5 µM (active)
O=C(CSc1nc(-c2ccc(F)cc2)nc2c1Cc1ccccc1O2)Nc1cccc(C(=O)O)c1,IC50,[12],> 50 µM (not active)
same,IC50,[13],50 µM (inactive)
same,IC50,[14],0.443 µM (active)
same,IC50,[15],2.26 µM (active)
same,IC50,[16],0.353 µM (active)
same,IC50,[17],> 66.6 µM (inactive)
same,IC50,[18],4.27 µM (active)
CC(=O)c1ccc(NC(=O)C(C)ONC(=N)c2ccccc2)cc1 (configuration not stated),IC50,[3],23.8 µM (inactive)
same,IC50,Steroidogenic factor 1,6.11 µM (active)
same,IC50,[4],35.9 µM (inactive)
Cc1cccc(C)c1Nc1nnc(SC/C(O)=C(\C#N)c2nc3ccccc3[nH]2)s1,IC50,[6],9.49 µM (active)
same,IC50,[7],25.2 µM (active)
